Test system: Murine RAW 264.7 macrophages
Assay: LPS-induced TNF-α production in RAW 264.7 macrophages (ELISA)
Format: cell-based
Details: 1 μM compound for 1 h, then 1 μg/mL LPS, vs vehicle (DMSO), FIG. 1
Procedure: Murine RAW 264.7 macrophages (ATCC TIB-71) were cultured in Dulbecco's Modified Eagle's Medium supplemented with fetal bovine serum (FBS) at a final concentration of 10%. The cells were maintained in T75 flasks in humidified atmosphere with 5% CO2 at 37° C. Subculturing was performed every 2-3 days with a cellscraper.
RAW 264.7 macrophages were seeded onto 24-well plate in 1 mL of complete growth medium and left overnight to enable cell attachment. Next day the cells were washed with phosphate buffered saline and the medium was replaced with 0.5 mL of low serum medium containing 1% FBS. After 3 h of incubation, the medium was replaced with serum-free medium (0.5 mL) and incubated for 1.5 h. Then, the cells were exposed to 1 μM (R,R′)-4′-methoxy-1-naphthylfenoterol (MNF) or vehicle (DMSO) for 1 h followed by stimulation with 1 μg/mL lipopolysaccharide (LPS, E. coli 055: B5). Media were collected at the following timepoints after LPS administration: 0 h, 2 h, 4 h, 6 h, 8 h, and 10 h.
TNF-α was measured in all collected media samples using Quantikine ELISA kit (MTA00B) from R&D Systems according to manufacturer's protocol.
Statistical analysis Obtained data were assessed and plotted using GraphPad Prism 8.4.2. Two-way analysis of variance (ANOVA) followed by Sidak post-hoc test was used to compare mean TNF-α concentration across treatments and exposure times.

SMILES: COc1ccc(C[C@@H](C)NC[C@H](O)c2cc(O)cc(O)c2)c2ccccc12 [(R,R′) MNF, (R,R′)-4′-methoxy-1-naphthylfenoterol]
- inhibition of LPS-induced production of TNF-α (8 h timepoint after LPS): significant inhibition
- inhibition of LPS-induced production of TNF-α (10 h timepoint after LPS): significant inhibition

From patent US20230165811A1, “METHOD FOR TREATING SYMPTOMS OF VIRAL INFECTIONS” (priority 2020, published 2023)
